Results reported in ChEMBL document CHEMBL3885861, “Open TG-GATES”.

Species on record: Rattus norvegicus
Assay: Open TG-GATES - Regimen: Daily Repeat
Type: toxicity, organism-based, Sprague-Dawley
Design: regimen Daily Repeat, gender Male, age 6 weeks
Conditions: in vivo, po, route gavage; for APTT / Bas / Eos / Fbg / Hb / Ht / Lym / MCH / MCHC / MCV / Mono / Neu / PT / Plat / RBC / Ret / WBC: tissue Blood; for KIDNEY_L / KIDNEY_R / KIDNEY_TOTAL: tissue Kidney; for LIVER: tissue Liver; for ALP / ALT / AST / BUN / CRE / Ca / DBIL / GLC / IP / K / LDH / Na / PL / RALB / TBIL / TC / TG / TP / gamma-GTP: tissue Plasma
[1] = 0 mg/kg, 72 h, dose level Control, time 3 day
[2] = 0 mg/kg, […], dose level Control, time 7 day
[3] = 0 mg/kg, […], dose level Control, time 14 day
[4] = 0 mg/kg, […], dose level Control, time 28 day
[5] = 15 mg/kg, 72 h, dose level Low, time 3 day
[6] = 15 mg/kg, […], dose level Low, time 7 day
[7] = 15 mg/kg, […], dose level Low, time 14 day
[8] = 15 mg/kg, […], dose level Low, time 28 day

Oc1ncnc2[nH]ncc12 [ALLOPURINOL]
TERMINAL_BW [1]: 244.3 g
APTT [1]: 16.6 s
Bas [1]: 0%
Eos [1]: 0.8%
Fbg [1]: 237 mg/dL
Hb [1]: 13.9 g/dL
Ht [1]: 41.5%
Lym [1]: 74.6%
MCH [1]: 22.3 pg
MCHC [1]: 33.3%
MCV [1]: 66.7 fL
Mono [1]: 11.6%
Neu [1]: 12.8%
PT [1]: 11.9 s
Plat [1]: 93.5 x10_4/uL
RBC [1]: 623.2 x10_4/ul
Ret [1]: 7.7%
WBC [1]: 127.2 x10_2/uL
KIDNEY_L [1]: 1 g
KIDNEY_R [1]: 1 g
KIDNEY_TOTAL [1]: 2.1 g
LIVER [1]: 12.2 g
ALP [1]: 863.2 IU/L
ALT [1]: 34.2 IU/L
AST [1]: 58.2 IU/L
BUN [1]: 18.2 mg/dL
CRE [1]: 0.5 mg/dL
Ca [1]: 11.4 mg/dL
DBIL [1]: 0 mg/dL
GLC [1]: 201.6 mg/dL
IP [1]: 8.1 mg/dL
K [1]: 4.9 meq/L
LDH [1]: 84.6 IU/L
Na [1]: 137.8 meq/L
PL [1]: 174.6 mg/dL
RALB [1]: 3.9 g/dL
TBIL [1]: 0.2 mg/dL
TC [1]: 87.8 mg/dL
TG [1]: 130 mg/dL
TP [1]: 6 g/dL
gamma-GTP [1]: 1.2 IU/L
TERMINAL_BW [2]: 249.8 g
TERMINAL_BW [3]: 318.9 g
TERMINAL_BW [4]: 401.4 g
APTT [2]: 17.2 s
Bas [2]: 0%
Eos [2]: 1%
Fbg [2]: 242.2 mg/dL
Hb [2]: 15 g/dL
Ht [2]: 45.2%
Lym [2]: 77.8%
MCH [2]: 20.4 pg
MCHC [2]: 33.2%
MCV [2]: 61.4 fL
Mono [2]: 4.8%
Neu [2]: 16.8%
PT [2]: 12 s
Plat [2]: 118.1 x10_4/uL
RBC [2]: 737.4 x10_4/ul
Ret [2]: 4.5%
APTT [3]: 16.9 s
Bas [3]: 0%
Eos [3]: 1%
Fbg [3]: 227 mg/dL
Hb [3]: 14.5 g/dL
Ht [3]: 44%
Lym [3]: 76.4%
MCH [3]: 19.9 pg
MCHC [3]: 33%
MCV [3]: 60.5 fL
Mono [3]: 6%
Neu [3]: 16.8%
PT [3]: 11.9 s
Plat [3]: 97.7 x10_4/uL
RBC [3]: 728 x10_4/ul
Ret [3]: 3.7%
APTT [4]: 16.3 s
Bas [4]: 0%
Eos [4]: 1%
Fbg [4]: 230.6 mg/dL
Hb [4]: 14.8 g/dL
Ht [4]: 44.2%
Lym [4]: 80.8%
MCH [4]: 19.3 pg
MCHC [4]: 33.5%
MCV [4]: 57.6 fL
Mono [4]: 6.2%
Neu [4]: 11.8%
PT [4]: 12.3 s
Plat [4]: 109.3 x10_4/uL
RBC [4]: 766.8 x10_4/ul
Ret [4]: 3.5%
WBC [4]: 163 x10_2/uL
KIDNEY_L [2]: 1.1 g
KIDNEY_R [2]: 1.1 g
KIDNEY_TOTAL [2]: 2.1 g
KIDNEY_L [3]: 1.2 g
KIDNEY_R [3]: 1.2 g
KIDNEY_TOTAL [3]: 2.5 g
KIDNEY_L [4]: 1.4 g
KIDNEY_R [4]: 1.4 g
KIDNEY_TOTAL [4]: 2.8 g
LIVER [3]: 14.3 g
LIVER [4]: 16.2 g
ALP [2]: 874.8 IU/L
ALT [2]: 26 IU/L
AST [2]: 56.2 IU/L
BUN [2]: 22.4 mg/dL
CRE [2]: 0.5 mg/dL
DBIL [2]: 0.06 mg/dL
GLC [2]: 203 mg/dL
IP [2]: 7.7 mg/dL
K [2]: 4.6 meq/L
LDH [2]: 86.2 IU/L
Na [2]: 136.6 meq/L
PL [2]: 135.4 mg/dL
RALB [2]: 4 g/dL
TBIL [2]: 0.3 mg/dL
TC [2]: 68.2 mg/dL
TG [2]: 60.4 mg/dL
TP [2]: 6.2 g/dL
gamma-GTP [2]: 1.2 IU/L
ALP [3]: 710.4 IU/L
ALT [3]: 32 IU/L
AST [3]: 62.8 IU/L
BUN [3]: 17.8 mg/dL
CRE [3]: 0.6 mg/dL
Ca [3]: 10.9 mg/dL
DBIL [3]: 0.01 mg/dL
GLC [3]: 206.4 mg/dL
IP [3]: 7.9 mg/dL
K [3]: 4.3 meq/L
LDH [3]: 69.8 IU/L
Na [3]: 139.8 meq/L
PL [3]: 150 mg/dL
RALB [3]: 3.6 g/dL
TBIL [3]: 0.3 mg/dL
TC [3]: 70 mg/dL
TG [3]: 118 mg/dL
TP [3]: 6 g/dL
gamma-GTP [3]: 1.6 IU/L
ALP [4]: 602.4 IU/L
ALT [4]: 31.6 IU/L
AST [4]: 61.8 IU/L
BUN [4]: 20 mg/dL
CRE [4]: 0.4 mg/dL
DBIL [4]: 0.018 mg/dL
GLC [4]: 186 mg/dL
IP [4]: 6.5 mg/dL
K [4]: 4.7 meq/L
LDH [4]: 81 IU/L
Na [4]: 138.8 meq/L
PL [4]: 146.2 mg/dL
RALB [4]: 3.8 g/dL
TBIL [4]: 0.3 mg/dL
TC [4]: 67.2 mg/dL
TG [4]: 147.4 mg/dL
TP [4]: 6.2 g/dL
gamma-GTP [4]: 1.4 IU/L
TERMINAL_BW [5]: 242.3 g
APTT [5]: 16.5 s
Bas [5]: 0%
Eos [5]: 0.8%
Fbg [5]: 229.2 mg/dL
Hb [5]: 13.9 g/dL
Ht [5]: 41.8%
Lym [5]: 81.2%
MCH [5]: 21.5 pg
MCHC [5]: 33.3%
MCV [5]: 64.8 fL
Mono [5]: 6%
Neu [5]: 11.4%
PT [5]: 12.1 s
Plat [5]: 91.2 x10_4/uL
RBC [5]: 646.4 x10_4/ul
Ret [5]: 7%
WBC [5]: 93.9 x10_2/uL
KIDNEY_L [5]: 1 g
KIDNEY_R [5]: 1 g
KIDNEY_TOTAL [5]: 2.1 g
LIVER [5]: 11.7 g
ALT [5]: 33.4 IU/L
AST [5]: 67.4 IU/L
BUN [5]: 18.4 mg/dL
CRE [5]: 0.5 mg/dL
Ca [5]: 11.3 mg/dL
DBIL [5]: 0.002 mg/dL
GLC [5]: 193 mg/dL
IP [5]: 8.4 mg/dL
K [5]: 4.8 meq/L
LDH [5]: 85.2 IU/L
Na [5]: 139.2 meq/L
PL [5]: 162.4 mg/dL
RALB [5]: 3.9 g/dL
TBIL [5]: 0.3 mg/dL
TC [5]: 81.4 mg/dL
TG [5]: 111 mg/dL
TP [5]: 6.1 g/dL
gamma-GTP [5]: 1.6 IU/L
TERMINAL_BW [6]: 256.8 g
TERMINAL_BW [7]: 323.2 g
TERMINAL_BW [8]: 383.9 g
APTT [6]: 16.7 s
Bas [6]: 0%
Eos [6]: 1%
Fbg [6]: 246.6 mg/dL
Hb [6]: 14.8 g/dL
Ht [6]: 44.6%
Lym [6]: 83.2%
MCH [6]: 21.1 pg
MCHC [6]: 33.2%
MCV [6]: 63.5 fL
Mono [6]: 3.4%
Neu [6]: 12.6%
PT [6]: 11.8 s
Plat [6]: 112.6 x10_4/uL
RBC [6]: 702.2 x10_4/ul
Ret [6]: 4.6%
WBC [6]: 108.6 x10_2/uL
APTT [7]: 16.8 s
Bas [7]: 0%
Eos [7]: 0.8%
Fbg [7]: 242.8 mg/dL
Hb [7]: 14.6 g/dL
Ht [7]: 44%
Lym [7]: 81%
MCH [7]: 20.5 pg
MCHC [7]: 33.2%
MCV [7]: 61.7 fL
Mono [7]: 4.8%
Neu [7]: 13.4%
PT [7]: 11.7 s
Plat [7]: 111.9 x10_4/uL
RBC [7]: 714 x10_4/ul
Ret [7]: 4.4%
APTT [8]: 16.6 s
Bas [8]: 0%
Eos [8]: 1%
Fbg [8]: 225.8 mg/dL
Hb [8]: 15.4 g/dL
Ht [8]: 46%
Lym [8]: 83.8%
MCH [8]: 19.4 pg
MCHC [8]: 33.6%
MCV [8]: 57.8 fL
Mono [8]: 2.8%
Neu [8]: 12.4%
PT [8]: 12.1 s
RBC [8]: 795.8 x10_4/ul
Ret [8]: 2.4%
WBC [8]: 167 x10_2/uL
KIDNEY_L [6]: 1.2 g
KIDNEY_R [6]: 1.2 g
KIDNEY_TOTAL [6]: 2.3 g
KIDNEY_L [7]: 1.3 g
KIDNEY_R [7]: 1.3 g
KIDNEY_TOTAL [7]: 2.6 g
KIDNEY_L [8]: 1.4 g
KIDNEY_R [8]: 1.4 g
KIDNEY_TOTAL [8]: 2.9 g
LIVER [6]: 11.7 g
LIVER [7]: 15.3 g
LIVER [8]: 16.6 g
ALP [6]: 753 IU/L
ALT [6]: 25.2 IU/L
AST [6]: 56.6 IU/L
BUN [6]: 21.6 mg/dL
CRE [6]: 0.6 mg/dL
Ca [6]: 11.3 mg/dL
DBIL [6]: 0.012 mg/dL
GLC [6]: 192.6 mg/dL
IP [6]: 8.6 mg/dL
K [6]: 4.5 meq/L
Na [6]: 137.8 meq/L
PL [6]: 156 mg/dL
RALB [6]: 4.2 g/dL
TBIL [6]: 0.3 mg/dL
TC [6]: 81.2 mg/dL
TG [6]: 85.2 mg/dL
TP [6]: 6.2 g/dL
gamma-GTP [6]: 2.4 IU/L
ALP [7]: 823.2 IU/L
ALT [7]: 27.2 IU/L
AST [7]: 56.8 IU/L
BUN [7]: 19.4 mg/dL
CRE [7]: 0.6 mg/dL
DBIL [7]: 0 mg/dL
GLC [7]: 185.4 mg/dL
IP [7]: 7.5 mg/dL
K [7]: 4.4 meq/L
LDH [7]: 74.8 IU/L
Na [7]: 138.8 meq/L
PL [7]: 158.6 mg/dL
RALB [7]: 3.9 g/dL
TBIL [7]: 0.2 mg/dL
TC [7]: 69.8 mg/dL
TG [7]: 161.6 mg/dL
TP [7]: 6.2 g/dL
gamma-GTP [7]: 2 IU/L
ALP [8]: 525.8 IU/L
ALT [8]: 29.4 IU/L
AST [8]: 59.2 IU/L
BUN [8]: 20.6 mg/dL
CRE [8]: 0.6 mg/dL
Ca [8]: 11 mg/dL
DBIL [8]: 0.014 mg/dL
GLC [8]: 188.4 mg/dL
IP [8]: 6.9 mg/dL
K [8]: 4.8 meq/L
LDH [8]: 74.4 IU/L
Na [8]: 139.6 meq/L
PL [8]: 153.4 mg/dL
RALB [8]: 4.1 g/dL
TBIL [8]: 0.3 mg/dL
TC [8]: 70 mg/dL
TG [8]: 160.6 mg/dL
TP [8]: 6.6 g/dL
gamma-GTP [8]: 2.8 IU/L
TERMINAL_BW (50 mg/kg, 72 h, dose level Middle, time 3 day): 239.5 g
